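Dose response: 5 concentrations. Exposure: 48 h. Format: 96-well plates. Endpoint: linear interpolation; highest concentration if not reached. The concentration for 50% growth inhibition is given as GI50. Definition used: TGI = concentration required for complete inhibition of growth.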
Legend:
Assay in all cases: inhibition of tumour cell growth, NCI panel, 48 h
SK-MEL-5 melanoma = system: SK-MEL-5 melanoma
K-562 leukemia = system: K-562 leukemia
COLO 205 colon = system: COLO 205 colon
EKVX NSCLC = system: EKVX NSCLC
T-47D breast = system: T-47D breast
HS 578T breast = system: HS 578T breast
DU-145 prostate = system: DU-145 prostate
NCI/ADR-RES ovarian = system: NCI/ADR-RES ovarian
PC-3 prostate = system: PC-3 prostate
MCF7 breast = system: MCF7 breast

Structure (SMILES) | TGI (SK-MEL-5 melanoma) | TGI (K-562 leukemia) | TGI (COLO 205 colon) | TGI (EKVX NSCLC) | GI50 (SK-MEL-5 melanoma) | GI50 (K-562 leukemia) | GI50 (T-47D breast) | TGI (T-47D breast) | GI50 (HS 578T breast) | TGI (HS 578T breast) | GI50 (DU-145 prostate) | TGI (DU-145 prostate) | GI50 (NCI/ADR-RES ovarian) | TGI (NCI/ADR-RES ovarian) | GI50 (PC-3 prostate) | TGI (PC-3 prostate) | GI50 (COLO 205 colon) | GI50 (EKVX NSCLC) | GI50 (MCF7 breast) | TGI (MCF7 breast)
N=c1nnc(=O)c2c(s1)-n1ncc(C(=O)O)c1NN2 | > 100 µM | > 100 µM | > 100 µM | > 100 µM | – | – | – | – | – | – | – | – | – | – | – | – | – | – | – | –
CC(C)c1ccc(C(=O)Nc2sc3c(c2C#N)CCC(=O)C3)cc1 | 2.52 µM | – | 2.87 µM | > 88.8 µM | 0.979 µM | 0.203 µM | 0.263 µM | 1.48 µM | 0.546 µM | > 100 µM | 4.26 µM | > 100 µM | 0.464 µM | 11.2 µM | 0.263 µM | > 23.7 µM | 0.49 µM | 1.94 µM | 0.337 µM | > 45 µM
CN(C)C(N)=NC#N | > 100 µM | > 100 µM | > 100 µM | > 100 µM | – | – | – | – | – | – | – | – | – | – | – | – | – | – | – | –
C(CCC[Te][Te]CCCCCCOC1CCCCO1)CCOC1CCCCO1 (stereo unspecified) | – | 29.7 µM | 36.5 µM | – | – | – | – | – | – | – | – | – | – | – | – | – | – | – | – | –
O=C(Nc1ccc(F)cc1)c1c(NC(=O)C(F)(F)F)sc2c1CCCCC2 | 2.1 µM | > 100 µM | 3.59 µM | – | 0.592 µM | 1.97 µM | 1.62 µM | 5.61 µM | 0.633 µM | 4.57 µM | 3.43 µM | 87.1 µM | 2.01 µM | 7.82 µM | 1.59 µM | 7.87 µM | 1.55 µM | – | 1.97 µM | 9.84 µM
O=S(=O)(NCC1CCC(CNc2ccc(Cl)cc2)CC1)c1ccc(-c2ccccc2)cc1 (stereo unspecified) | > 50 µM | > 50 µM | > 50 µM | > 50 µM | 15.9 µM | 17.4 µM | – | – | 12.7 µM | > 50 µM | > 50 µM | > 50 µM | > 50 µM | > 50 µM | 40.9 µM | > 50 µM | > 50 µM | 25.7 µM | > 50 µM | > 50 µM
NC1CCN(c2nc(Nc3cccc(C(F)(F)F)c3)c3c(=O)[nH]ccc3n2)CC1 | 2.9 µM | 3.21 µM | 2.82 µM | 3.16 µM | 1.54 µM | 1.18 µM | 1.56 µM | 3.26 µM | 1.64 µM | 4.26 µM | – | – | 1.87 µM | 3.63 µM | 1.78 µM | 3.59 µM | 1.4 µM | 1.35 µM | 1.35 µM | 3.02 µM
CCC(=O)C(C)C1=Nc2nnc(CCCCCCCc3nnc4n3C(=O)C(C(C)C(=O)CC)=N4)n2C1=O (stereo unspecified) | > 100 µM | > 100 µM | > 100 µM | > 100 µM | – | – | – | – | – | – | – | – | – | – | – | – | – | – | – | –
C(=N\OCc1ccccc1)/c1ncccc1C1OCCO1 | > 100 µM | > 100 µM | > 100 µM | > 100 µM | – | – | – | – | – | – | – | – | – | – | – | – | – | – | – | –
CCOC(=O)c1[nH]c(-c2ccc(Cl)cc2)cc1-c1cccnc1 | > 100 µM | > 100 µM | 7.49 µM | > 100 µM | 0.401 µM | 0.391 µM | 0.612 µM | > 100 µM | – | – | 1.88 µM | > 100 µM | 0.511 µM | > 100 µM | 0.325 µM | > 100 µM | 0.398 µM | 1.35 µM | 0.453 µM | > 100 µM
O=C(NCCCNc1cc(-c2cn(-c3ccccc3)nc2-c2cccc(O)c2)ccn1)c1ccccc1 | 3.12 µM | – | 3.67 µM | > 100 µM | 1.49 µM | – | 1.57 µM | 6.89 µM | 3.06 µM | 48.3 µM | 5.29 µM | 96.5 µM | 2.67 µM | 9.79 µM | 2.1 µM | 15.2 µM | 1.71 µM | 3.16 µM | 1.74 µM | 5.29 µM
CC1(C)OC(=O)C=C([O-])O1.CC1(C)OC(=O)C=C([O-])O1.O=S(=O)([O-])c1ccc([O-])c2ncccc12.O=S(=O)([O-])c1ccc([O-])c2ncccc12.[Ti+4] | > 100 µM | > 100 µM | > 100 µM | > 100 µM | 92 µM | > 100 µM | – | – | – | – | – | – | – | – | – | – | > 100 µM | > 100 µM | – | –
COC1CC2C=C(C)/C=C/C=C/C(=O)NC(c3ccccc3)C/C=C/CCC(O)CC(=O)C2=C1O (stereo unspecified) | – | 1.03 µM | 0.315 µM | – | – | 0.212 µM | 0.264 µM | 0.871 µM | 0.393 µM | 1.91 µM | 0.405 µM | 1.57 µM | 0.309 µM | 1.19 µM | 0.289 µM | 1.16 µM | 0.159 µM | – | 0.169 µM | 0.776 µM
COc1ccc(-c2cc(/C=C3\C(=O)Nc4ccc(Cl)cc43)[nH]n2)cc1 | 23.6 µM | 13.1 µM | 4.7 µM | – | 5.17 µM | 2.56 µM | 3.62 µM | 14.6 µM | 3.52 µM | 22.4 µM | 3.89 µM | 13.6 µM | 3.85 µM | 17.7 µM | 4.03 µM | 15.9 µM | 2.08 µM | – | 2.43 µM | 11.8 µM
COC(=O)c1sc(C(=O)OC)c2c1CSC2 | > 100 µM | > 100 µM | > 100 µM | > 100 µM | – | – | – | – | – | > 100 µM | – | > 100 µM | – | > 100 µM | – | > 100 µM | – | – | – | > 100 µM
COc1ccc(C(N)=O)cc1N=NN(C)C | > 100 µM | > 100 µM | > 100 µM | > 100 µM | – | – | – | – | – | – | – | – | – | – | – | – | – | – | – | –
COc1cccc(C(=O)N2CCc3ccccc32)c1OC | > 100 µM | > 100 µM | > 100 µM | > 100 µM | – | – | – | – | – | – | – | – | – | – | – | – | – | – | – | –
CCNC(=O)C#CC(=O)NCC | > 100 µM | > 70.2 µM | > 100 µM | > 100 µM | > 10 µM | > 10 µM | – | – | – | – | – | – | – | – | – | – | – | > 10 µM | – | –
N=C(N=C(N)N)N1CCN(c2ccncc2)CC1 | > 1000 µM | > 1000 µM | > 1000 µM | – | > 1000 µM | > 1000 µM | > 1000 µM | > 1000 µM | 913 µM | > 1000 µM | > 1000 µM | > 1000 µM | > 1000 µM | > 1000 µM | > 1000 µM | > 1000 µM | > 1000 µM | – | > 1000 µM | > 1000 µM
